From article PMC4019573, “Characterization of Protein Phosphatase 5 from Three Lepidopteran Insects: Helicoverpa armigera, Mythimna separata and Plutella xylostella” (PLoS ONE, 2014)

Columns and labels:
recombinant HaPP5 [1] = biological target: T1, recombinant HaPP5 (Helicoverpa armigera, UniProt A0A059TAS5); assay: Arachidonic acid stimulation assay and kinetics of recombinant HaPP5, pNPP as substrate; assay type: biochemical
T1 sequence (A0A059TAS5 1-490): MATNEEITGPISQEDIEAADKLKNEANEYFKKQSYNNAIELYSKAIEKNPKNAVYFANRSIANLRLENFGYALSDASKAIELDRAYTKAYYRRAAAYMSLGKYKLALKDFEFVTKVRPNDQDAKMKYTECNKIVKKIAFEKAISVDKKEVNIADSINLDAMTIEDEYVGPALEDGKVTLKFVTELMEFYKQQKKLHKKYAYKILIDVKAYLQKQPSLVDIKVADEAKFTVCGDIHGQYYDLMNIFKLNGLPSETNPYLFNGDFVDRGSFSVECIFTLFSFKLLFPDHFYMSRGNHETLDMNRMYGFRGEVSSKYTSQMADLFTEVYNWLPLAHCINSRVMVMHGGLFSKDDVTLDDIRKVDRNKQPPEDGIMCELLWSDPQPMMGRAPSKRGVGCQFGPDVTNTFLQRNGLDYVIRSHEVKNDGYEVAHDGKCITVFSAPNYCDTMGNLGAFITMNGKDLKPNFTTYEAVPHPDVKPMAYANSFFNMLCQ
Text: (§1) Non-enzyme samples were taken as controls.

recombinant MsPP5 [2] = biological target: T2, recombinant MsPP5 (Mythimna separata, UniProt A0A059TAW5); assay: Arachidonic acid stimulation assay and kinetics of recombinant MsPP5, pNPP as substrate; assay type: biochemical
T2 sequence (A0A059TAW5 1-490): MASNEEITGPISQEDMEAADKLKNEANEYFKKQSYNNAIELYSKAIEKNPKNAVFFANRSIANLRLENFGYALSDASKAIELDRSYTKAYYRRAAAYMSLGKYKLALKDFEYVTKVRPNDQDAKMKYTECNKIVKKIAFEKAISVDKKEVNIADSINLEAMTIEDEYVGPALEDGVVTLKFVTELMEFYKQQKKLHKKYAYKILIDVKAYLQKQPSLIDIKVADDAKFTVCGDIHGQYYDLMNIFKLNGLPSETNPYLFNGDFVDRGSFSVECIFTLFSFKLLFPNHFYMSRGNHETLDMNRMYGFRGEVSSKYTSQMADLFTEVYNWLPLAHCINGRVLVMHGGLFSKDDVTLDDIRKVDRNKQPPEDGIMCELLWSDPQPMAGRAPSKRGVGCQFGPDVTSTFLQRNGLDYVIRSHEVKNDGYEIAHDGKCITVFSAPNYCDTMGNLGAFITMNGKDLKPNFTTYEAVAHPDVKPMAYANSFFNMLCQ
Text: as §1

recombinant PxPP5 [3] = biological target: T3, recombinant PxPP5 (Plutella xylostella, UniProt W0FSW2); assay: Arachidonic acid stimulation assay and kinetics of recombinant PxPP5, pNPP as substrate; assay type: biochemical
T3 sequence (W0FSW2 1-491): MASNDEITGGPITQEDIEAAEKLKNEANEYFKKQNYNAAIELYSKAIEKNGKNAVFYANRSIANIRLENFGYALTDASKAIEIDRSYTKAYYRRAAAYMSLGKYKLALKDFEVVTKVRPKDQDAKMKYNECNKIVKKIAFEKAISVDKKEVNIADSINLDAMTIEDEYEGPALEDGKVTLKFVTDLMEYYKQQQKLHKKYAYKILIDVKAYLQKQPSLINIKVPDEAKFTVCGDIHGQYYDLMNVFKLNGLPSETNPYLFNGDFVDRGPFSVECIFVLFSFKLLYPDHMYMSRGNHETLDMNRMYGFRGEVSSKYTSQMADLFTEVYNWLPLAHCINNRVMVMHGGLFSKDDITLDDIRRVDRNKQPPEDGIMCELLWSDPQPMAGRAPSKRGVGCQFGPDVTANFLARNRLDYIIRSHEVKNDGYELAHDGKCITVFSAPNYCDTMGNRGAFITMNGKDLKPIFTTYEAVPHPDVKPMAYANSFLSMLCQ
Text: as §1

[4] = system: total crude protein phosphatases; assay: Arachidonic acid stimulation of crude PPP extracts, phosphopeptides as substrate; assay type: biochemical, H. armigera, M. separata and P. xylostella; conditions: larvae extracts of three insects
Method: (§2) One gram of 4th instar larvae of each insects were ground into a homogeneous state in ice-cold 20 mM Tris (pH = 7.5), 0.1% β-mercaptoethanol, 1 mM EDTA, 1 mM benzamidine and 1 mM (PMSF). This was then centrifuged at 12,000 g for 30 min at 4°C. The supernatant extract was desalted using Sephadex G-25 spin columns (GE Healthcare, Boston, MA, USA) to remove the contaminating free phosphate as described in the instruction manual. Each insect extract contained three biological replicates. Protein concentration was estimated using the method of Bradford.
(§3) Phosphatases activity of crude extract was determined towards phosphopeptides using PPP assay kit (Promega, Madison, WI, USA) in half-area 96-well plates (Corning, NY, USA) following the manual instruction. In brief, 1.0 µg protein was mixed in assay buffer of 50 mM imidazole (pH 7.2), 0.2 mM EGTA, 0.02% β-mercaptoethanol, 0.1 mg ml^−1 BSA, and pre-warmed to 30°C. Reaction was initiated after adding 100 µM phosphopeptides, RRA(pT)VA to obtain a final volume of 50 µL and incubated at 30°C for 15 min. The reaction was stopped by adding 50 µL of molybdate dye/additive mixture and incubated for an additional 15 min at room temperature for color development. Control samples were determined without enzyme.

[5] = system: E. coli expressed PP5 from T. brucei; design: method as in PMID 11290414; conditions: cited from earlier work
[6] = system: E. coli expressed PP5 from P. falciparum; design: method as in PMID 11897131; conditions: cited from earlier work
[7] = system: E. coli expressed PP5 from E. chinensis; design: method as in PMID 24351830; conditions: cited from earlier work
recombinant HaPP5 [8] = biological target: T1, recombinant HaPP5; assay: Inhibition assay of recombinant HaPP5 phosphatase activity, pNPP as substrate; assay type: biochemical
Method: as §1
(§4) Three candidate inhibitors were dissolved in dimethyl sulphoxide (DMSO) to provide stock solutions of 10 mM for okadaic acid, 100 mM for cantharidin, and 200 mM for endothall, respectively. All solutions were diluted to the desired concentrations with assay buffer before use. Assays were carried out using pNPP as substrate for purified proteins or using RRA(pT)VA as substrate for crude PPP extract. Before initiating the reaction, the enzyme was incubated with the chemicals for 5 min at room temperature. A dose-response assay was used to determine the IC50 values. The non-enzyme reaction was taken as the background control, while the non-inhibitor reaction was used as the full-activity control.

recombinant MsPP5 [9] = biological target: T2, recombinant MsPP5; assay: Inhibition assay of recombinant MsPP5 phosphatase activity, pNPP as substrate; assay type: biochemical
Method: as §1, §4

recombinant PxPP5 [10] = biological target: T3, recombinant PxPP5; assay: Inhibition assay of recombinant PxPP5 phosphatase activity, pNPP as substrate; assay type: biochemical
Method: as §1, §4

[11] = system: three lepidopteran PP5 proteins; assay: Inhibition of the three recombinant lepidopteran PP5 proteins (stated jointly), pNPP as substrate; assay type: biochemical, H. armigera, M. separata and P. xylostella; conditions: range over HaPP5, MsPP5 and PxPP5
Method: as §1, §4

crude PPP extracts = assay: Inhibition of phosphatase activity of crude PPP extracts, phosphopeptide RRA(pT)VA as substrate; assay type: biochemical, H. armigera, M. separata and P. xylostella; conditions: treated with 1.0 µM inhibitor, range over three insect extracts
Method: as §2, §3, §4

E. chinensis PP5 = system: E. chinensis PP5; design: method as in PMID 24351830; conditions: cited from earlier work
[12] = substrate: O=[N+]([O-])c1ccc(OP(=O)(O)O)cc1; assay: purified protein, by the assay type; conditions: pH 7.5; 30.0 °C
[13] = 0.25 h, up to, dose dependent, maximum activation at 150 µM
[14] = addition of 150 µM arachidonic acid
[15] = up to, dose dependent, maximum activation at 150 µM, 15 min, 150 µM

## CCCCC/C=C\C/C=C\C/C=C\C/C=C\CCCC(=O)O [arachidonic acid]
Recombinant HaPP5 [1]; [13]
  maximal fold induction at 150 µM: ~2
Recombinant HaPP5 [1]; [14]
  Elevation of Vmax value of HaPP5: 1.33 fold
  Reduction of Km value of HaPP5: 2.07 fold
Recombinant HaPP5 [1]; [15]
  Stimulation of activity of recombinant HaPP5: up to 1.78 fold
Recombinant MsPP5 [2]; [13]
  maximal fold induction at 150 µM: ~2
Recombinant MsPP5 [2]; [14]
  Elevation of Vmax value of MsPP5: 1.54 fold
  Reduction of Km value of MsPP5: 1.86 fold
Recombinant MsPP5 [2]; [15]
  Stimulation of activity of recombinant MsPP5: ≤ 1.99 fold
Recombinant PxPP5 [3]; [13]
  maximal fold induction at 150 µM: ~2
Recombinant PxPP5 [3]; [14]
  Elevation of Vmax value of PxPP5: 1.26 fold
  Reduction of Km value of PxPP5: 2.16 fold
Recombinant PxPP5 [3]; [15]
  Stimulation of activity of recombinant PxPP5: ≤ 1.81 fold
[4]
  Stimulation of phosphatase activity of total crude extracts: no significant stimulation
[5]
  Maximum activation of E. coli expressed PP5 from T. brucei: 2.6 fold
[6]
  Maximum activation of E. coli expressed PP5 from P. falciparum: 2.0 fold
[7]
  Maximum activation of E. coli expressed PP5 from E. chinensis: 2.3 fold

## C[C@@]12C(=O)OC(=O)[C@]1(C)[C@H]1CC[C@@H]2O1 [cantharidin]
Recombinant HaPP5 [8]
  IC50: 1280 ± 310 nM
Recombinant MsPP5 [9]
  IC50: 2380 ± 480 nM
Recombinant PxPP5 [10]
  IC50: 730 ± 270 nM
[11]
  IC50: 730 to 2380 nM
Crude PPP extracts
  Residual phosphatase activities of the three crude extracts: 57.65–61.23%

## O=C(O)[C@@H]1[C@H](C(=O)O)[C@H]2CC[C@@H]1O2 [endothall]
Recombinant HaPP5 [8]
  IC50: 19300 ± 2340 nM
Recombinant MsPP5 [9]
  IC50: 12600 ± 1620 nM
Recombinant PxPP5 [10]
  IC50: 6840 ± 470 nM
Crude PPP extracts
  Residual phosphatase activities of the three crude extracts: 83.77–87.66%

## C=C1[C@@H](O)[C@@H]2O[C@]3(CC[C@H](/C=C/[C@@H](C)[C@@H]4CC(C)=C[C@@]5(O[C@H](C[C@@](C)(O)C(=O)O)CC[C@H]5O)O4)O3)CC[C@H]2O[C@@H]1[C@@H](O)C[C@H](C)[C@H]1O[C@@]2(CCCCO2)CC[C@H]1C [okadaic acid]
Recombinant HaPP5 [8]
  IC50: 41.8 ± 3.31 nM
Recombinant MsPP5 [9]
  IC50: 17.6 ± 3.2 nM
Recombinant PxPP5 [10]
  IC50: 25 ± 1.64 nM
Crude PPP extracts
  Residual phosphatase activities of the three crude extracts: 16.37–18.89%
E. chinensis PP5
  IC50: 190 nM

B1: MsPP5 (Mythimna separata) (protein)
chain: MASNEEITGPISQEDMEAADKLKNEANEYFKKQSYNNAIELYSKAIEKNPKNAVFFANRSIANLRLENFGYALSDASKAIELDRSYTKAYYRRAAAYMSLGKYKLALKDFEYVTKVRPNDQDAKMKYTECNKIVKKIAFEKAISVDKKEVNIADSINLEAMTIEDEYVGPALEDGVVTLKFVTELMEFYKQQKKLHKKYAYKILIDVKAYLQKQPSLIDIKVADDAKFTVCGDIHGQYYDLMNIFKLNGLPSETNPYLFNGDFVDRGSFSVECIFTLFSFKLLFPNHFYMSRGNHETLDMNRMYGFRGEVSSKYTSQMADLFTEVYNWLPLAHCINGRVLVMHGGLFSKDDVTLDDIRKVDRNKQPPEDGIMCELLWSDPQPMAGRAPSKRGVGCQFGPDVTSTFLQRNGLDYVIRSHEVKNDGYEIAHDGKCITVFSAPNYCDTMGNLGAFITMNGKDLKPNFTTYEAVAHPDVKPMAYANSFFNMLCQ
[12]
  Km: 9.01 ± 0.51 mM

B2: PxPP5 (Plutella xylostella) (protein)
chain: MASNDEITGGPITQEDIEAAEKLKNEANEYFKKQNYNAAIELYSKAIEKNGKNAVFYANRSIANIRLENFGYALTDASKAIEIDRSYTKAYYRRAAAYMSLGKYKLALKDFEVVTKVRPKDQDAKMKYNECNKIVKKIAFEKAISVDKKEVNIADSINLDAMTIEDEYEGPALEDGKVTLKFVTDLMEYYKQQQKLHKKYAYKILIDVKAYLQKQPSLINIKVPDEAKFTVCGDIHGQYYDLMNVFKLNGLPSETNPYLFNGDFVDRGPFSVECIFVLFSFKLLYPDHMYMSRGNHETLDMNRMYGFRGEVSSKYTSQMADLFTEVYNWLPLAHCINNRVMVMHGGLFSKDDITLDDIRRVDRNKQPPEDGIMCELLWSDPQPMAGRAPSKRGVGCQFGPDVTANFLARNRLDYIIRSHEVKNDGYELAHDGKCITVFSAPNYCDTMGNRGAFITMNGKDLKPIFTTYEAVPHPDVKPMAYANSFLSMLCQ
[12]
  Km: 8.83 ± 0.75 mM

B3: HaPP5 (Helicoverpa armigera) (protein)
chain: MATNEEITGPISQEDIEAADKLKNEANEYFKKQSYNNAIELYSKAIEKNPKNAVYFANRSIANLRLENFGYALSDASKAIELDRAYTKAYYRRAAAYMSLGKYKLALKDFEFVTKVRPNDQDAKMKYTECNKIVKKIAFEKAISVDKKEVNIADSINLDAMTIEDEYVGPALEDGKVTLKFVTELMEFYKQQKKLHKKYAYKILIDVKAYLQKQPSLVDIKVADEAKFTVCGDIHGQYYDLMNIFKLNGLPSETNPYLFNGDFVDRGSFSVECIFTLFSFKLLFPDHFYMSRGNHETLDMNRMYGFRGEVSSKYTSQMADLFTEVYNWLPLAHCINSRVMVMHGGLFSKDDVTLDDIRKVDRNKQPPEDGIMCELLWSDPQPMMGRAPSKRGVGCQFGPDVTNTFLQRNGLDYVIRSHEVKNDGYEVAHDGKCITVFSAPNYCDTMGNLGAFITMNGKDLKPNFTTYEAVPHPDVKPMAYANSFFNMLCQ
[12]
  Km: 8.64 ± 0.95 mM
